Patent US20070099276A1, “Retrovirus-like particles and retroviral vaccines” (priority 2003, published 2007)

Target: HIV protease (Human immunodeficiency virus type 1 group M subtype B, UniProt P12497)
Format: cell-based, HIV-1
Description: Retrovirus-like particles and virions were isolated by centrifugation through a 20% sucrose pad in a SW28.1Ti rotor (Beckman-Coulter, Inc., Fullerton, Calif.) at 120,000 g at 4° C. for 1 hour. Immunoblot analyses of retrovirus-like particles and virion preparations (the equivalent of 10% of the transfection supernatant) were performed as previously described, using peroxidase-conjugated secondary antibodies and developed with the Enhanced ChemiLuminescence reagent (Amersham Life Science, Arlington Heights, Ill.). Rabbit antiserum against p6Gag (DJ-30552) and goat antiserum against, p7NC (#77), p17MA (#83), or p24CA (#81) were obtained from the AIDS Vaccine Program. Monoclonal antibody against reverse transcriptase was obtained from Perkin Elmer/NEN Life Science. N-terminal protein sequence analysis was carried out on an Applied Biosystems Procise model 494 microsequencer (Foster City, Calif.) as previously described (Chertova et al., J. Virol., 76:5315 (2002)). Micro-scale high-pressure liquid chromatography (HPLC) was performed as previously described (Chertova et al., J. Virol. 76:5315 (2002)). Matrix-assisted laser desorption/ionization-time-of-flight (MALDI) mass spectrometry was carried out as previously described (Ott et al., J. Virol., 73:19 (1999)) using a Kratos Kompact Probe (Kratos Analytical Inc., Chestnut Ridge, N.Y.).
To examine protease activity and mutant budding in another way, 293T cells were transfected with pNL4-3 or DelNC and then treated without or with 10 nM of the protease inhibitor Saquinavir for 24 hours.

CC(C)(C)NC(=O)[C@@H]1C[C@@H]2CCCC[C@@H]2CN1C[C@@H](O)[C@H](Cc1ccccc1)NC(=O)[C@H](CC(N)=O)NC(=O)c1ccc2ccccc2n1 [Saquinavir]
effect on DelNC Gag processing: essentially eliminated | effect on amount of pNL4-3 virions in the medium: not largely increased | effect on cleavage of NL4-3 Gag: only a slight reduction | effect on production of DelNC retrovirus-like particles: increased
